Structures can show the parent of a compound that is named as a salt.
Assays:
mGluR5 receptor = target: T1, mGluR5 receptor (Sus scrofa, UniProt I3LUI7); test: [3H]-MPEP mGluR5 receptor binding assay (pig brain homogenate); conditions: 5 nM [3H]-MPEP; for IC50: read-out: IC50 mGluR5 Receptor (pig) [^3H]-MPEP Bond; for inhibition at 10 µM: read-out: % Inhibition of mGluR5 Receptor (pig) [^3H]-MPEP Bond at 10 μM
T1 construct: 450 μg of protein from brain homogenate with 5 nM ^3[H]-MPEP; from tissue; host or cells: pig brain halves without medulla, cerebellum and pons
Method in brief: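 Radioligand displacement of 5 nM [3H]-MPEP from pig brain homogenate (450 μg protein; medulla, cerebellum and pons removed) in 20 mM Hepes pH 8.0. Compounds were tested at 10 μM, incubated 60 min at room temperature, then filtered and counted by scintillation. Non-specific binding was defined with 10 μM MPEP.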

mGluR5 receptor (human) = target: T2, mGluR5 receptor (human) (Homo sapiens, UniProt P41594); test: Functional Ca2+ influx assay in CHO-hmGluR5 cells (DHPG 10 μM, FLIPR); type: cell-based
T2 construct: host or cells: CHO
Method: V. Functional Ca^2+ Influx Assay
20,000 CHO-hmGluR5 cells/well (Euroscreen, Gosselies, Belgium) are pipetted into 96-well plates (BD Biosciences, Heidelberg, Germany, Ref. 356640, clear bottom, 96-well, poly-D-lysine) and incubated overnight in HBSS buffer (Gibco 14025-050) with the following additions: 10% FCS (GIBCO, 10270-106) and doxycycline (BD Biosciences Clontech 631311 600 ng/ml).
For the functional study the cells were charged with 2 μM of Fluo-4 and 0.01% by vol. pluronic F127 (Molecular Probes Europe BV, Leiden, The Netherlands) in HBSS buffer (Hank's buffered saline solution, Gibco Invitrogen GmbH, Karlsruhe, Germany) with probenicide (Sigma P8761, […]) for 30 min. at 37° C.
The cells are then washed 3 times with washing buffer (HBSS buffer, Gibco No. 14025-050), with probenicide (Sigma P8761, 0.69 mg/ml) and then taken up with the same buffer ad 100 μl. After 15 min. the plates for determining the Ca^2+ measurements in the presence of DHPG ((S)-3,5-dihydroxyphenylglycine, Tocris Biotrend Chemikalien GmbH, Cologne, Germany, final DHPG concentration: 10 μM) and also in the presence or absence of test substances are transferred into a fluorometric imaging plate reader (FLIPR, Molecular Devices, Sunnyvale, Calif.).
The Ca^2+-dependent fluorescence is measured before and after the addition of test substances. The quantification occurs through the measurement of the highest fluorescence intensity over time. After the fluorescence base line has been recorded for 10 sec. 50 μl of test substance solution (different test substance concentrations in HBSS buffer with 1% DMSO and 0.02% Tween 20, Sigma) are added and the fluorescence signal is measured for 6 min. 50 μl of DHPG solution ((S)-3,5-dihydroxyphenylglycine, Tocris Biotrend Chemikalien GmbH, Cologne, Germany, final DHPG concentration: 10 μM) are then added and the influx of Ca^2+ is measured simultaneously for 60 sec. The final DMSO concentration amounts to 0.25% and the final Tween 20 content amounts to 0.005%. The data are analysed with Microsoft Excel and GraphPad Prism. The dose effect curves are calculated with non-linear regression and IC50 values determined. Each data point is determined 3 times and IC50 values are averaged from a minimum of 2 independent measurements. Ki values are calculated according to the following formula:
Ki=IC50/(1+(AGconc./EC50)).
AGconc.=10 μM; EC50 corresponds to the DHPG concentration necessary for the half-maximum influx of Ca^2+.

T2 sequence (P41594 21-1212): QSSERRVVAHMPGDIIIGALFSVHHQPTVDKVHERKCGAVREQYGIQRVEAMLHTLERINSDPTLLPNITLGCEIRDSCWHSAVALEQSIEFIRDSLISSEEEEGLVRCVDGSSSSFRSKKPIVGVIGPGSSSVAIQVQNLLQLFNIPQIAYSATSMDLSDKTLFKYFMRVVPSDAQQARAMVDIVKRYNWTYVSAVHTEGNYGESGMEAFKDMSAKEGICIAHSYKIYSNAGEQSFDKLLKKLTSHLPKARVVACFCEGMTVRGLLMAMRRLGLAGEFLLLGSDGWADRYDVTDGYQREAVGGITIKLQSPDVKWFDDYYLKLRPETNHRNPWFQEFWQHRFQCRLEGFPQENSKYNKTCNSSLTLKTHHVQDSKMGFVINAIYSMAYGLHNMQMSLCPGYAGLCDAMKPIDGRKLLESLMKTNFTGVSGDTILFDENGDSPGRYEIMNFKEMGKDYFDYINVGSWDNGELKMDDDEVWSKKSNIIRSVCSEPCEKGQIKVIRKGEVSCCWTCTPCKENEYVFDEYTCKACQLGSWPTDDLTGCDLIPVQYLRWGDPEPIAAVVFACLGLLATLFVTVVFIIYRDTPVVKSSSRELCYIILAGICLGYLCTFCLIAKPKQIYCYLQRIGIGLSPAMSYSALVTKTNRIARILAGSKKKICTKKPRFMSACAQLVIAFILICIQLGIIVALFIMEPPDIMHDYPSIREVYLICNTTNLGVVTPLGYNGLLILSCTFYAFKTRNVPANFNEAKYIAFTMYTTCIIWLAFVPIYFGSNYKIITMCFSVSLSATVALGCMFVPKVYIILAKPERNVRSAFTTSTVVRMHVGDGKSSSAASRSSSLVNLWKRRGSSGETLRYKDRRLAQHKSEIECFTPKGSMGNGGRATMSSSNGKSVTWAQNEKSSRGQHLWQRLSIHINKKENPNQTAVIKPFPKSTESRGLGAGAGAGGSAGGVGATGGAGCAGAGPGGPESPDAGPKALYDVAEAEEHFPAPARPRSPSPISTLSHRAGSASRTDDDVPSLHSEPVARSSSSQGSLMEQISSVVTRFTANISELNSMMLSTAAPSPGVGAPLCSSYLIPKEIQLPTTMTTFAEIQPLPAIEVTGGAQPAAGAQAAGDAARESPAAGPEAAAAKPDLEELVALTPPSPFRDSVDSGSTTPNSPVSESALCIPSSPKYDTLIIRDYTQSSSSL
T1 sequence (I3LUI7 19-1212): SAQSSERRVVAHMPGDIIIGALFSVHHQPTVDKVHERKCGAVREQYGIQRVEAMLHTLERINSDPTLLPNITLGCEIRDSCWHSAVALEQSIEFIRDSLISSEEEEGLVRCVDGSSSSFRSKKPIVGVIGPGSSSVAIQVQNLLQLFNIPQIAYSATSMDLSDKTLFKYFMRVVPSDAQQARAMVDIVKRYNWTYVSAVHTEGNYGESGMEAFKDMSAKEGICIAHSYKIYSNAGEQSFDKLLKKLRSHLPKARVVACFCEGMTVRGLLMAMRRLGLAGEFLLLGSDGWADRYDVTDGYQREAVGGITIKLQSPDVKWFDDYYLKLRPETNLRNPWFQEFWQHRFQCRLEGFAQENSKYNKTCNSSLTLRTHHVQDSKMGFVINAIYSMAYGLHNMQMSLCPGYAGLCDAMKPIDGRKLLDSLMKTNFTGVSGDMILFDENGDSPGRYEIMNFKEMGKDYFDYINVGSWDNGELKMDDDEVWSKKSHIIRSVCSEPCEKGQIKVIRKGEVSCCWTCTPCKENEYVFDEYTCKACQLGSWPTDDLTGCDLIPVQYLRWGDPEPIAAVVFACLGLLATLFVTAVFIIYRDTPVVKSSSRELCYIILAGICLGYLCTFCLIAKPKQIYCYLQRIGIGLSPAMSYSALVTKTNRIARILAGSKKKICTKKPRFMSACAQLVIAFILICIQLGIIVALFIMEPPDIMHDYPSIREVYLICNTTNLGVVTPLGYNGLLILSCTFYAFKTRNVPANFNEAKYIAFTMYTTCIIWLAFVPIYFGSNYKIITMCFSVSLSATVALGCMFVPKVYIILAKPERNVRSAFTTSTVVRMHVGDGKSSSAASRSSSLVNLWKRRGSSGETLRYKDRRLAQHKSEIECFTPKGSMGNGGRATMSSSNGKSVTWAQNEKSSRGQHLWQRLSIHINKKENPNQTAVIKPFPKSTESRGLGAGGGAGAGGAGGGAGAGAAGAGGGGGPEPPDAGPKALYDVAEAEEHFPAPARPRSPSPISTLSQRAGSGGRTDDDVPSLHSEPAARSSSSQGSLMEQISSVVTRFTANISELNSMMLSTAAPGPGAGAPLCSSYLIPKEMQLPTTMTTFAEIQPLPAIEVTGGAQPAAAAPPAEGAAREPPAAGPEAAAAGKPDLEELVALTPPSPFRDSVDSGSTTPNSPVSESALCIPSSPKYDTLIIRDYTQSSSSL

Row | SMILES | IC50 (mGluR5 receptor) | Ki (mGluR5 receptor (human)) | inhibition at 10 µM (mGluR5 receptor; 10 μM compound) | % Inhibition of mGluR5 Receptor (pig) [^3H]-MPEP Bond at 10 μM (mGluR5 receptor; 10 μM compound)
1 | O=C(c1ccccc1)N(Cc1cc(-c2ccc3ncnc(NC4CC4)c3c2)ccc1F)C1CC1 [Example 269, N-cyclopropyl-N-(5-(4-(cyclopropylamino)quinazolin-6-yl)-2-fluorobenzyl)benzamide] | 280 nM | 8 nM | – | –
2 | CCOC(=O)N(Cc1cccc(-c2ccc3ncnc(NC4CC4)c3c2)c1)C1CC1 [Example 875, ethyl cyclopropyl(3-(4-(cyclopropylamino)quinazolin-6-yl)benzyl)carbamate] | 40 nM | 51.1 nM | – | –
3 | O=C(N(Cc1cccc(-c2ccc3ncnc(NC4CC4)c3c2)c1)C1CC1)C(F)(F)F [Example 273, N-cyclopropyl-N-(3-(4-(cyclopropylamino)quinazolin-6-yl)benzyl)-2,2,2-trifluoroacetamide] | 30 nM | 1.7 nM | – | –
4 | O=C1CCC(=O)N1Cc1cccc(-c2cc3c(NC4CC4)ncnc3cc2F)c1 [Example 882, 1-(3-(4-(cyclopropylamino)-7-fluoroquinazolin-6-yl)benzyl)pyrrolidine-2,5-dione] | 70 nM | 2.7 nM | – | –
5 | COc1ccc(CN(C2CC2)S(C)(=O)=O)cc1-c1ccc2ncnc(NC3CC3)c2c1 [Example 250, N-cyclopropyl-N-(3-(4-(cyclopropylamino)quinazolin-6-yl)-4-methoxybenzyl)methane sulfonamide] | 120 nM | 5 nM | – | –
6 | O=C(c1ccccc1)N(Cc1cccc(-c2ccc3ncnc(N4CCCC4)c3c2)c1)C1CC1 [Example 121, N-cyclopropyl-N-[3-(4-pyrrolidin-1-yl-quinazolin-6-yl)-benzyl]-benzamide] | – | 7.5 nM | – | –
7 | N#Cc1cccc(C(=O)N(Cc2cccc(-c3ccc4ncnc(NC5CC5)c4c3)c2)C2CC2)c1 [Example 176, 3-cyano-N-cyclopropyl-N-[3-(4-cyclopropylamino-quinazolin-6-yl)-benzyl]-benzamide] | – | – | 76% | –
8 | Cc1nc(C(=O)N(Cc2cc(-c3ccc4ncnc(NC5CC5)c4c3)ccc2F)C2CC2)cs1 [Example 605, N-cyclopropyl-N-(5-(4-(cyclopropylamino)quinazolin-6-yl)-2-fluorobenzyl)-2-methylthiazole-4-carboxamide] | – | – | 94% | –
9 | O=C1CC2(CCCC2)CC(=O)N1Cc1cccc(-c2ccc3ncnc(NC4CC4)c3c2)c1 [Example 243, 8-[3-(4-cyclopropylamino-quinazolin-6-yl)-benzyl]-8-aza-spiro[4.5]decane-7,9-dione; hydrochloride] | – | – | 39% | –
10 | O=S(=O)(c1ccc(C(F)(F)F)cc1)N(Cc1cccc(-c2ccc3ncnc(NC4CC4)c3c2)c1)C1CC1 [Example 226, N-cyclopropyl-N-(3-(4-(cyclopropylamino)quinazolin-6-yl)benzyl)-4-(trifluoromethyl)benzole sulfonamide] | 2640 nM | – | – | –
11 | Cc1cc2ncnc(NC3CC3)c2cc1-c1cccc(CN(C2CC2)S(C)(=O)=O)c1 [Example 697, N-cyclopropyl-N-(3-(4-(cyclopropylamino)-7-methylquinazolin-6-yl)benzyl)methane sulfonamide] | – | – | 90% | –
12 | CC(C)Nc1ncnc2ccc(-c3cccc(CN(Cc4ccccc4)C(=O)c4ccccc4)c3)cc12 [Example 36, N-benzyl-N-[3-(4-isopropylamino-quinazolin-6-yl)-benzyl]-benzamide] | – | – | 42% | –

Second part, the compound after the results:

Row | IC50 (mGluR5 receptor) | Ki (mGluR5 receptor (human)) | inhibition at 10 µM (mGluR5 receptor; 10 μM compound) | % Inhibition of mGluR5 Receptor (pig) [^3H]-MPEP Bond at 10 μM (mGluR5 receptor; 10 μM compound) | SMILES
13 | 280 nM | 12 nM | – | – | CS(=O)(=O)N(Cc1cccc(-c2ccc3ncnc(NC4CC4)c3c2)c1)C1CC1 [Example 270, N-cyclopropyl-N-(3-(4-(cyclopropylamino)quinazolin-6-yl)benzyl)methane sulfonamide]
14 | 90 nM | 4.7 nM | – | – | CC(C)(C)Nc1ncnc2ccc(-c3cccc(CN4C(=O)CCC4=O)c3)cc12 [Example 196, 1-[3-(4-tert-butylamino-quinazolin-6-yl)-benzyl]-pyrrolidine-2,5-dione hydrochloride]
15 | 140 nM | 5.2 nM | – | – | CC1CC(=O)N(Cc2cccc(-c3ccc4ncnc(NC5CC5)c4c3)c2)C1=O (stereo not drawn) [Example 245, 1-[3-(4-cyclopropylamino-quinazolin-6-yl)-benzyl]-3-methyl-pyrrolidine-2,5-dione]
16 | 200 nM | 39 nM | – | – | COc1ccc(CN(C(C)=O)C2CC2)cc1-c1ccc2ncnc(NC3CC3)c2c1 [Example 261, N-cyclopropyl-N-[3-(4-cyclopropylamino-quinazolin-6-yl)-4-methoxy-benzyl]-acetamide]
17 | 50 nM | 3.9 nM | – | – | O=C1CCC(=O)N1Cc1cccc(-c2ccc3ncnc(NC4CC4)c3c2)c1 [Example 258, 1-[3-(4-cyclopropylamino-quinazolin-6-yl)-benzyl]-pyrrolidine-2,5-dione]
18 | 140 nM | 8.2 nM | – | – | CC(=O)N(Cc1cccc(-c2ccc3ncnc(NC4CC4)c3c2)c1)C1CC1 [Example 271, N-cyclopropyl-N-(3-(4-(cyclopropylamino)quinazolin-6-yl)benzyl)acetamide]
19 | 110 nM | 5.9 nM | – | – | CC(=O)N(Cc1cc(-c2ccc3ncnc(NC4CC4)c3c2)cs1)C1CC1 [Example 262, N-cyclopropyl-N-[4-(4-cyclopropylamino-quinazolin-6-yl)-thiophen-2-ylmethyl]-acetamide]
20 | – | 3.3 nM | 55% | – | CC(=O)N(Cc1cccc(-c2ccc3ncnc(NC4CC4)c3c2)c1)C(C)(C)C [Example 202, N-tert-butyl-N-[3-(4-cyclopropylamino-quinazolin-6-yl)-benzyl]-acetamide]
21 | – | – | 52% | – | O=C(c1cc(Cl)cc(Cl)c1)N(Cc1cc(-c2ccc3ncnc(NC4CC4)c3c2)ccc1Cl)C1CC1 [Example 747, 3,5-dichloro-N-(2-chloro-5-(4-(cyclopropylamino)quinazolin-6-yl)benzyl)-N-cyclopropylbenzamide]
22 | – | – | – | 96% | CC(C)(C)Nc1ncnc2ccc(-c3ccc(F)c(CN(C(=O)c4ccncc4)C4CC4)c3)cc12 [Example 832, N-(5-(4-(tert-butylamino)quinazolin-6-yl)-2-fluorobenzyl)-N-cyclopropyl isonicotinamide]
23 | – | – | 71% | – | O=C(c1ccc(F)cc1F)N(Cc1cc(-c2ccc3ncnc(NC4CC4)c3c2)ccn1)C1CC1 [Example 817, N-cyclopropyl-N-((4-(4-(cyclopropylamino)quinazolin-6-yl)pyridin-2-yl)methyl)-2,4-difluorobenzamide]
24 | – | – | 50% | – | CCCC(=O)N(CCC)Cc1cccc(-c2ccc3ncnc(Nc4ccccc4)c3c2)c1 [Example 115, N-[3-(4-phenylamino-quinazolin-6-yl)-benzyl]-N-propyl-butyramide]
25 | 350 nM | – | – | – | O=C1CCCC(=O)N1Cc1cc(-c2ccc3ncnc(NC4CC4)c3c2)ccc1F [Example 278, 1-(5-(4-(cyclopropylamino)quinazolin-6-yl)-2-fluorobenzyl)piperidine-2,6-dione]
26 | – | – | 69% | – | Cc1cc(C(=O)N(Cc2cccc(-c3cc4c(NC5CC5)ncnc4cc3C)c2)C2CC2)n(C)n1 [Example 706, N-cyclopropyl-N-(3-(4-(cyclopropylamino)-7-methylquinazolin-6-yl)benzyl)-1,3-dimethyl-1H-pyrazole-5-carboxamide]
27 | – | – | 36% | – | O=S(=O)(c1cccc2cccnc12)N(Cc1cccc(-c2cc(F)c3ncnc(NC4CC4)c3c2)c1)C1CC1 [Example 709, N-cyclopropyl-N-(3-(4-(cyclopropylamino)-8-fluoroquinazolin-6-yl)benzyl)quinoline-8-sulfonamide]
28 | 3110 nM | – | – | – | Fc1ccc(-c2ccc3ncnc(NC4CC4)c3c2)c(F)c1CNC1CC1 [Example 304, N-cyclopropyl-6-(3-((cyclopropylamino)methyl)-2,4-difluorophenyl)quinazoline-4-amine]
29 | 30 nM | – | – | – | N#CCC(=O)N(Cc1cc(-c2ccc3ncnc(NC4CC4)c3c2)ccc1F)C1CC1 [Example 281, 2-cyano-N-cyclopropyl-N-(5-(4-(cyclopropylamino)quinazolin-6-yl)-2-fluorobenzyl)acetamide hydrochloride]

— patent US20090069320A1, “Substituted 4-Amino-Quinazoline Compounds with Metabotropic Glutamate Receptor Regulating Activity and Uses Thereof” (Gruenenthal GmbH, priority 2006, published 2009)
